Experimental data from PubChem BioAssay AID743417 (Broad Institute, 2014).
Results filed as inconclusive are left out.

Tested on: Clone20 osteoblast Shn3 3'UTR firefly luciferase, 24 h
Assay: Shn3 3'UTR reporter inhibitors, dose response, cell-based, Clone20 osteoblasts, luminescence, dry powder, set 2 (AID 743417)

Question: `CSc1nnc(NC(=O)c2nc(S(=O)(=O)Cc3ccccc3F)ncc2Cl)s1` was tested. Which AC50 did it give?
Answer: Its AC50 is 1.55 µM.

Question: Which AC50 does the source give for `COC(=O)c1ccc(COC(=O)c2[nH]c(C)c(C(C)=O)c2C)o1` here?
Answer: Its AC50 is 2.58 µM.

Question: Which AC50 does the source give for `CCn1c2ccccc2c2cc(CNCc3ccc(OC)cc3OC)ccc21` here?
Answer: The AC50 was 14.7 µM.

Question: With `COCCN(CC(=O)NC1CCCCC1)C(=O)/C=C/C(=O)c1ccc(OC)cc1O` as the molecule, how does the AC50 read?
Answer: Its AC50 is 2.58 µM.

Question: With `O=C(Nc1cccc(F)c1)c1cc(S(=O)(=O)NCCC2=CCCCC2)ccc1F` as the molecule, how does the AC50 read?
Answer: Its AC50 is 4.16 µM.

Question: Which AC50 does the source give for `COc1cc(NC(=O)c2cc3c(Cl)nc4ccccc4c3s2)cc(OC)c1OC` here?
Answer: The AC50 was 24.4 µM.

Question: `COCCN1Cc2cccc(C(=O)Nc3ccc4c(c3)OCCO4)c2C1=O` was tested. Which AC50 did it give?
Answer: The AC50 was 27.1 µM.

Question: `CN(c1ccccc1)S(=O)(=O)c1cccc(NC(=O)c2ccc3ncsc3c2)c1` was tested. Which AC50 did it give?
Answer: Its AC50 is 17.2 µM.

Question: How did the AC50 turn out when `COc1ccccc1NC(=O)Cc1nn(C)c(=O)c2ccccc12` was run?
Answer: The AC50 was 1.97 µM.

Question: `O=c1c(Br)c(Br)cnn1-c1ccccc1` was tested. Which AC50 did it give?
Answer: Its AC50 is 1.82 µM.

Question: Which AC50 does the source give for `O=C(CN1CCCC1c1cccs1)Nc1cc(S(=O)(=O)N2CCCCC2)ccc1Cl` (configuration not stated) here?
Answer: The AC50 was 14.4 µM.

Question: How did the AC50 turn out when `Cc1cc(N2CCCCC2)nc(NCc2ccccc2)n1` was run?
Answer: The AC50 was 4.01 µM.

Question: How did the AC50 turn out when `CCN(CC)CCNC(=O)CSc1c2c(nc3cc(Cl)ccc13)CCCC2` was run?
Answer: The AC50 was 14.9 µM.

Question: With `Cc1ccc(C(=O)Nc2nc(-c3ccccn3)cs2)cc1S(=O)(=O)N1CCOCC1` as the molecule, how does the AC50 read?
Answer: The AC50 was 0.838 µM.

Question: How did the AC50 turn out when `O=C(CSc1ccccn1)Nc1nonc1[N+](=O)[O-]` was run?
Answer: The AC50 was 5 µM.

Question: For `O=C(OCCOc1ccc(Cl)cc1)c1cc(S(=O)(=O)N2CCCCC2)ccc1N1CCOCC1`, which AC50 is on record?
Answer: The AC50 was 1.97 µM.

Question: How did the AC50 turn out when `C#CC(=O)N(c1cc(OC)ccc1OC)C(C(=O)NC1CCCC1)c1cccs1` (configuration not stated) was run?
Answer: Its AC50 is 4.57 µM.

Question: With `Cc1ccc(C)c(N2CCN(C(=O)CCS(=O)(=O)c3ccc4c(c3)NC(=O)C(C)S4)CC2)c1` (configuration not stated) as the molecule, how does the AC50 read?
Answer: The AC50 was 4.47 µM.

Question: Which AC50 does the source give for `CC(C)c1ccc(NC(=O)Nc2nc(C(N)c3ccccc3)cs2)cc1` (configuration not stated) here?
Answer: The AC50 was 2.48 µM.

Question: How did the AC50 turn out when `CCCCCCCCCCOC(=O)Cn1c(COc2ccc(OC)cc2)[n+](C)c2ccccc21` was run?
Answer: The AC50 was 2.01 µM.

Question: For `COc1ccc(CCNc2cc(N3CCN(C(=O)c4ccccc4F)CC3)ccc2[N+](=O)[O-])cc1OC`, which AC50 is on record?
Answer: The AC50 was 1.26 µM.

Question: How did the AC50 turn out when `CCOc1ccc(C(=O)C(CCC(CN(C)C)C(=O)c2ccc(OCC)cc2)CN(C)C)cc1` (configuration not stated) was run?
Answer: The AC50 was 1.61 µM.

Question: Which AC50 does the source give for `CCOc1cc(CNCCc2ccc(S(N)(=O)=O)cc2)ccc1OCc1ccccc1` here?
Answer: Its AC50 is 2.44 µM.

Question: Which AC50 does the source give for `CCN(CC)Cc1c(O)ccc2c1O/C(=C\C=C\c1ccccc1)C2=O` here?
Answer: The AC50 was 1.96 µM.

Question: `Cc1ccc(Cn2ccc(NC(=O)c3nn(C)cc3[N+](=O)[O-])n2)cc1` was tested. Which AC50 did it give?
Answer: The AC50 was 4.09 µM.

Question: With `CCOC(=O)C1CCN(C(=O)c2sc3nc(C)nc(N4CCC(C)CC4)c3c2C)CC1` as the molecule, how does the AC50 read?
Answer: Its AC50 is 5.26 µM.

Question: For `CN(C)c1nc(-c2ccccn2)nnc1-c1ccccc1`, which AC50 is on record?
Answer: The AC50 was 3.3 µM.

Question: For `CCCC(=O)OCCNc1cc(Sc2nccn2C)c2nonc2c1[N+](=O)[O-]`, which AC50 is on record?
Answer: Its AC50 is 7.22 µM.

Question: Which AC50 does the source give for `CCCCN1C2=NCCCN2c2cc(C)c(C)cc21` here?
Answer: Its AC50 is 0.803 µM.

Question: How did the AC50 turn out when `CN(CC(=O)Nc1cc(S(=O)(=O)N2CCCC2)ccc1Cl)Cc1ccc2c(c1)OCO2` was run?
Answer: The AC50 was 13.1 µM.

Question: For `COc1ccccc1-c1cc(C(F)(F)F)nc(S(=O)(=O)CCCC(=O)N2CCOCC2)n1`, which AC50 is on record?
Answer: Its AC50 is 3.02 µM.

Question: Which AC50 does the source give for `CC(=O)NC(c1ccc(C(C)C)cc1)c1ccc2cccnc2c1O` (configuration not stated) here?
Answer: Its AC50 is 0.528 µM.

Question: `Cc1ccc(NC(=O)C2CCN(S(=O)(=O)c3ccc4c(c3)NC(=O)C(C)S4)CC2)cc1Cl` (configuration not stated) was tested. Which AC50 did it give?
Answer: Its AC50 is 2.83 µM.

Question: With `Cn1c(SCc2ccc(F)cc2Cl)nc2ccccc2c1=O` as the molecule, how does the AC50 read?
Answer: Its AC50 is 8.65 µM.

Question: `O=C(Cn1cnc2ccccc21)Nc1cccc(S(=O)(=O)N2CCCC2)c1` was tested. Which AC50 did it give?
Answer: The AC50 was 2.77 µM.

Question: For `Cc1ccc(Nc2nc(NCC3CC3)nc3ccsc23)c(C)c1`, which AC50 is on record?
Answer: The AC50 was 5.82 µM.

Question: How did the AC50 turn out when `C=CCOc1nc2c(c(=O)n(C)c(=O)n2C)n1Cc1ccc(Cl)cc1` was run?
Answer: Its AC50 is 1.03 µM.

Question: For `O=C(CN1C(=O)c2ccccc2S1(=O)=O)c1ccc2c(c1)OCCCO2`, which AC50 is on record?
Answer: Its AC50 is 0.262 µM.

Question: For `Cn1nc(-c2ccc(Cl)cc2)c2cc(C(=O)N3CCN(c4ccccn4)CC3)sc21`, which AC50 is on record?
Answer: Its AC50 is 4.02 µM.

Question: `COc1ccc(CC(N)c2csc(NC(=O)c3cc(C(C)(C)C)nn3Cc3ccccc3)n2)cc1` (configuration not stated) was tested. Which AC50 did it give?
Answer: Its AC50 is 9.53 µM.

Question: For `Cc1c(CCOC(=O)CC23CC4CC(CC(C4)C2)C3)sc[n+]1CC(=O)c1ccc(Br)cc1`, which AC50 is on record?
Answer: Its AC50 is 12.9 µM.

Question: How did the AC50 turn out when `COc1ccc(S(=O)(=O)N2CCN(C(=O)c3cc(-c4ccc(Br)cc4)n[nH]3)CC2)cc1OC` was run?
Answer: The AC50 was 4.55 µM.

Question: `CC(C)(C)OC(=O)NCCCCCNC(=O)c1nc[nH]c1C(=O)NCc1ccc(CNC(=O)OC(C)(C)C)cc1` was tested. Which AC50 did it give?
Answer: Its AC50 is 3.95 µM.

Question: `CCc1nnc(NC(=O)c2nc(S(=O)(=O)Cc3ccc(C)cc3)ncc2Cl)s1` was tested. Which AC50 did it give?
Answer: The AC50 was 3.01 µM.

Question: With `COc1cccc(C2CC(c3ccc(C)cc3)=NN2C(=O)c2ccccc2F)c1OC` (configuration not stated) as the molecule, how does the AC50 read?
Answer: The AC50 was 36 µM.

Question: How did the AC50 turn out when `CC(=O)NC(c1cccc([N+](=O)[O-])c1)c1ccc2cccnc2c1O` (configuration not stated) was run?
Answer: Its AC50 is 0.889 µM.

Question: `CCc1nc(N2CCN(C(C)=O)CC2)c2c3c(sc2n1)CC(C(C)(C)C)CC3` (configuration not stated) was tested. Which AC50 did it give?
Answer: Its AC50 is 6.76 µM.

Question: Which AC50 does the source give for `Cc1sc2ncnc(NCC(C)(C)N3CCOCC3)c2c1C` here?
Answer: The AC50 was 1.36 µM.

Question: `O=C(O)C1(Nc2ccccc2Cl)CCCC1` was tested. Which AC50 did it give?
Answer: Its AC50 is 29.5 µM.

Question: Which AC50 does the source give for `CCCCC(=O)NC(c1ccc(OC)c(OC)c1)c1ccc2cccnc2c1O` (configuration not stated) here?
Answer: Its AC50 is 1.36 µM.

Question: `CC(Oc1ccc(F)cc1)C(=O)N(CCC1=CCCCC1)c1c(N)n(Cc2ccccc2)c(=O)[nH]c1=O` (configuration not stated) was tested. Which AC50 did it give?
Answer: The AC50 was 7.99 µM.

Question: `COCC1CCCCN1C(=O)c1cc(COc2ccc3ncccc3c2)on1` (configuration not stated) was tested. Which AC50 did it give?
Answer: Its AC50 is 0.33 µM.

Question: With `CN1OC[C@@H]2CN[C@H](c3ccc(-c4cc5ccccc5o4)cc3)C[C@@H]21` as the molecule, how does the AC50 read?
Answer: The AC50 was < 0.26 µM.

Question: How did the AC50 turn out when `C=C1C(=O)C23CCC4C(C)(C(=O)OC)CCCC4(C)C2CCC1(O)C3` (configuration not stated) was run?
Answer: Its AC50 is 0.976 µM.

Question: For `Fc1ccc(C(OCCN2CCN(CCCc3ccccc3)CC2)c2ccc(F)cc2)cc1`, which AC50 is on record?
Answer: Its AC50 is 6.17 µM.

Question: How did the AC50 turn out when `CC(C)Cn1c(N)c(C(=O)COC(=O)CC23CC4CC(CC(C4)C2)C3)c(=O)n(C)c1=O` was run?
Answer: Its AC50 is 1.51 µM.

Question: With `COc1cc(N2C(=O)C=CC2=O)ccc1N1C(=O)C=CC1=O` as the molecule, how does the AC50 read?
Answer: The AC50 was 2.32 µM.

Question: With `Oc1c(C(Nc2cccc(C(F)(F)F)c2)c2ccncc2)ccc2cccnc12` (configuration not stated) as the molecule, how does the AC50 read?
Answer: Its AC50 is 5.8 µM.

Question: Which AC50 does the source give for `O=S1(=O)C=C(Sc2nc3cc(Cl)ccc3o2)c2ccccc21` here?
Answer: The AC50 was < 0.26 µM.

Question: For `Oc1ccc(CN2CCCc3ccccc32)c2cccnc12`, which AC50 is on record?
Answer: Its AC50 is 5.4 µM.

Question: Which AC50 does the source give for `NS(=O)(=O)c1ccc(CNC(=S)NC(=O)c2ccco2)cc1` here?
Answer: The AC50 was 22.9 µM.

Question: `S=C(NCCc1ccccc1)Nc1cccc2cnccc12` was tested. Which AC50 did it give?
Answer: Its AC50 is 0.922 µM.

Question: How did the AC50 turn out when `S=C(NCCCCN(Cc1ccc(Cl)cc1)c1ccc(Br)cn1)NCCCc1cnc[nH]1` was run?
Answer: The AC50 was 7.24 µM.

Question: Which AC50 does the source give for `COc1ccccc1C(=O)Nc1nc(-c2ccc(S(=O)(=O)N3CCOCC3)cc2)cs1` here?
Answer: The AC50 was 1.21 µM.

Question: For `Cc1cccc(-n2ncc(Cl)c(Cl)c2=O)c1`, which AC50 is on record?
Answer: The AC50 was 5.8 µM.

Question: `Cc1cccc2c(C(=O)N3CCN(c4ccccn4)CC3)cc(-c3cccc(Br)c3)nc12` was tested. Which AC50 did it give?
Answer: The AC50 was 6.48 µM.

Question: Which AC50 does the source give for `CN1/C(=C\C=C2/SC(=S)NC2=O)C(C)(C)c2ccccc21` here?
Answer: The AC50 was 2.6 µM.

Question: Which AC50 does the source give for `COc1ccc2c(c1)c(CC(=O)Nc1cc(C)ccc1C)c(C)n2C(=O)c1ccc(Cl)cc1` here?
Answer: The AC50 was 5.69 µM.

Question: How did the AC50 turn out when `CCC1CCCCN1S(=O)(=O)c1ccc(NC(=O)c2ccncc2)cc1` (configuration not stated) was run?
Answer: Its AC50 is 3.43 µM.

Question: How did the AC50 turn out when `O=C(Nc1ccc(Cl)cc1)/C(=C/c1cccc(O)c1)c1nc2ccccc2s1` was run?
Answer: The AC50 was 3.53 µM.

Question: Which AC50 does the source give for `COc1ccc(C2/C=C\CN(S(=O)(=O)c3ccc(C)cc3)[C@H](Cc3ccccc3)C(=O)N2Cc2ccc(F)cc2)cc1` (some centres not stated) here?
Answer: Its AC50 is 12.9 µM.

Question: For `Cc1ccc(S(=O)(=O)Nc2cccc3ncccc23)s1`, which AC50 is on record?
Answer: Its AC50 is 3.85 µM.

Question: For `c1coc(CN(Cc2ccco2)c2ncnc3c2oc2ccccc23)c1`, which AC50 is on record?
Answer: The AC50 was 5.45 µM.

Question: Which AC50 does the source give for `CCN(CC)C(=S)Sc1c(-c2ccccc2)c2cc(Cl)ccc2[nH]c1=O` here?
Answer: Its AC50 is 27 µM.

Question: Which AC50 does the source give for `CCOC(=O)Cc1csc(SCC(=O)c2c(N)n(CC(C)C)c(=O)n(C)c2=O)n1` here?
Answer: The AC50 was 2.35 µM.

Question: For `CN(C)C1=NC[C@H](Cc2ccccc2)N1CCCC1CCCCC1`, which AC50 is on record?
Answer: Its AC50 is 1.47 µM.

Question: For `CCCOc1ccccc1N/C(=N/c1nc(C)cc(C)n1)NC(=O)COc1ccc(OC)cc1`, which AC50 is on record?
Answer: Its AC50 is 3.24 µM.
